SMILES strings stand for the structures.

Our source for the Ki values is BindingDB's records for doi:10.1021/jm020562o (University of Vermont, 2003).

This assay can be described thus: Binding affinity was determined against Opioid receptor delta 1 from guinea pig brain membranes.

As a reminder, the Ki is a dissociation constant, usually derived from enzyme kinetics or from competition with a known ligand. The compound `COCC[C@H]1CC2CN3CCc4c([nH]c5ccccc45)[C@](C(=O)OC)(C2)C13` [18-methoxycoronaridine] showed a Ki of 3.5 µM.
